Results taken from patent publication US10167266B2, “Sodium channel blockers” (Parion Sciences, Inc., priority 2002, dated 2019).
Structures can show the parent of a compound that is named as a salt.

Key:
[1] = system: sodium channel (ENaC), canine bronchial epithelia; assay: Sodium channel blocking activity: inhibition of short circuit current (ISC) in airway epithelial monolayers in Ussing chambers; type: cell-based; details: for Fold Amiloride*: potency in canine bronchial epithelia relative to amiloride
Protocol: One assay used to assess mechanism of action and/or potency of the compounds of the present invention involves the determination of lumenal drug inhibition of airway epithelial sodium currents measured under short circuit current (ISC) using airway epithelial monolayers mounted in Ussing chambers. Cells obtained from freshly excised human, dog, sheep or rodent airways are seeded onto porous 0.4 micron Snapwell™ Inserts (CoStar), cultured at air-liquid interface (ALI) conditions in hormonally defined media, and assayed for sodium transport activity (ISC) while bathed in Krebs Bicarbonate Ringer (KBR) in Using chambers. All test drug additions are to the lumenal bath with half-log dose addition protocols (from 1×10^−11 M to 3×10^−5 M), and the cumulative change in ISC (inhibition) recorded. All drugs are prepared in dimethyl sulfoxide as stock solutions at a concentration of 1×10^−2 M and stored at −20° C. Eight preparations are typically run in parallel; two preparations per run incorporate amiloride and/or benzamil as positive controls. After the maximal concentration (5×10^−5 M) is administered, the lumenal bath is exchanged three times with fresh drug-free KBR solution, and the resultant ISC measured after each wash for approximately 5 minutes in duration. Reversibility is defined as the percent return to the baseline value for sodium current after the third wash. All data from the voltage clamps are collected via a computer interface and analyzed off-line.
Dose-effect relationships for all compounds are considered and analyzed by the Prism 3.0 program. IC50 values, maximal effective concentrations, and reversibility are calculated and compared to amiloride and benzamil as positive controls.
Amiloride was also tested in this assay as a positive control. The results for the compounds of the present invention are reported as fold-enhancement values relative to amiloride.

| Compound | melting point | further results |
| --- | --- | --- |
| Cl.N=C(NCCCCc1ccc(OCC(O)C(O)CO)cc1)NC(=O)c1nc(Cl)c(N)nc1N (stereo not drawn) | 148 °C (dec.) | – |
| CC(O)COc1ccc(CCCCNC(=N)NC(=O)c2nc(Cl)c(N)nc2N)cc1 (stereo not drawn) (as salt: hydrochloride) [Example 18, 4-[4-(2-Hydroxypropyloxy)phenyl)]butylamidino-3,5-diamino-6-chloropyrazinecarboxamide hydrochloride] | 212 to 214 °C | – |
| COCCOCCOc1ccc(CCCCNC(=N)NC(=O)c2nc(Cl)c(N)nc2N)cc1 (as salt: hydrochloride) [drawing 50: n=2, 4-[4-(1,4,7-Trioxaoct-1-yl)phenyl]-butyl amidino-3,5-diamino-6-chloropyrazinecarboxamide hydrochloride] | 110 to 125 °C | – |
| N=C(NCCCCc1ccc(N)cc1)NC(=O)c1nc(Cl)c(N)nc1N (as salt: hydrochloride) [drawing 60: R=NH2, N=0, 4-[4-(4-Amino)phenyl)]butylamidino-3,5-diamino-6-chloropyrazinecarboxamide hydrochloride] | 195 to 200 °C | – |
| N=C(NCCCCc1ccc(OCCN)cc1)NC(=O)c1nc(Cl)c(N)nc1N (as salt: hydrochloride) [drawing 61: R=NH2, n=2, 4-[4-(2-aminoethyloxy)phenyl)butylamidino-3,5-diamino-6-chloropyrazinecarboxamide hydrochloride] | > 178 °C (dec.) | – |
| N=C(NCCCCc1cccc(OCC(O)CO)c1)NC(=O)c1nc(Cl)c(N)nc1N (stereo not drawn) (as salt: hydrochloride) [drawing 69: R=CH2OH, Meta, 4-[3-(2-,3-Dihydroxypropyloxyl)phenyl)]butylamidino-3,5-diamino-6-chloropyrazinecarboxamide hydrochloride] | 91 to 93 °C | – |
| N=C(NCCCCc1ccccc1OCC(O)CO)NC(=O)c1nc(Cl)c(N)nc1N (stereo not drawn) (as salt: hydrochloride) [drawing 69: R=CH2OH, Ortho, 4-[2-(2-,3-Dihydroxypropyloxy)phenyl)]butylamidino-3,5-diamino-6-chloropyrazinecarboxamide hydrochloride] | 200 to 205 °C | – |
| N=C(NCCCCc1cccc(OCCO)c1)NC(=O)c1nc(Cl)c(N)nc1N (as salt: hydrochloride) [drawing 69: R=H, Meta, 4-[3-(2-Hydroxyethyloxy)phenyl)butylamidino-3,5-diamino-6-chloropyrazinecarboxamide hydrochloride] | 161 to 163 °C (dec.) | – |
| N=C(NCCCCc1ccc(OCCOC2CCCCO2)cc1)NC(=O)c1nc(Cl)c(N)nc1N (stereo not drawn) [Example 20] | 161 °C | – |
| N=C(N)c1ccc(CCCCNC(N)=NC(=O)c2nc(Cl)c(N)nc2N)cc1 [drawing 62: X=C═NH, Y=NH2, 4-{4-[N′-(3,5-Diamino-6-chloropyrazine-2-carbonyl)guanidino]butyl}benzamidine] | 140 to 170 °C (dec.) | Fold Amiloride* ([1]; Example 43): 53.2 ± 19.3 (2) fold |
| Cl.Cl.N=C(N)NCCOc1ccc(CCCCNC(=N)NC(=O)c2nc(Cl)c(N)nc2N)cc1 [drawing 64: X=NH—C(═NH)—NH2, N-(3,5-diamino-6-chloropyrazine-2-carbonyl)-N′-{4-[4-(2-guanidinoethoxy)-phenyl]butyl}guanidine dihydrochloride] | 223 to 230 °C | Fold potency relative to amiloride ([1]; Example 51): 98.0 ± 58.5 (18); Fold Amiloride* ([1]; Example 45): 120.6 ± 60.8 (11) fold |
| Cl.Cl.N=C(NCCCCc1ccc(OCCN(C[C@@H](O)[C@@H](O)CO)C[C@@H](O)[C@@H](O)CO)cc1)NC(=O)c1nc(Cl)c(N)nc1N [drawing 67: O CH2 CH2 NR R^a,c (r18), N-[4-(4-{2-[bis-((2R,3S)-2,3,4-trihydroxybutyl)amino]ethoxy}phenyl)-butyl]-N′-(3,5-diamino-6-chloropyrazine-2-carbonyl)guanidine dihydrochloride] | 93 to 96 °C (dec.) | Fold Amiloride* ([1]; Example 48): 56.0 (1) fold |
| N=C(NCCCCc1ccccc1OCC(O)CO)NC(=O)c1nc(Cl)c(N)nc1N (stereo not drawn) [drawing 69: R=CH2OH, Ortho, 4-[2-(2-,3-Dihydroxypropyloxy)phenyl)]butylamidino-3,5-diamino-6-chloropyrazinecarboxamide hydrochloride] | – | Fold Amiloride* ([1]; Example 50): 24.0 ± 1.0 (2) fold |
| N=C(NCCCCc1cccc(OCCO)c1)NC(=O)c1nc(Cl)c(N)nc1N [drawing 69: R=H, Meta, 4-[3-(2-Hydroxyethyloxy)phenyl)butylamidino-3,5-diamino-6-chloropyrazinecarboxamide hydrochloride] | – | Fold Amiloride* ([1]; Example 50): 41.1 ± 8.5 (2) fold |
